Patent publication US5336485A, “Method for protecting animals against tacrine induced cytotoxic injury using sterol compounds” (priority 1993, dated 1994)

Experiments:
rat = conditions: in vivo, ip, 100 mg/kg
Description: The duration of pentobarbitone-induced sleeping time is directly dependent on the metabolism of pentobarbitone in the liver.
^a Rats are pretreated, with the compounds listed, 20 hours prior to

[1] = test system: isolated rat liver mitochondria; conditions: 6 mM succinate; cited from earlier work
rat hepatocytes [2] = assay: ATP content of rat hepatocyte suspensions; assay type: cell-based; conditions: 25 μM
Description: It is well known that the succinate molecule is utilized by the cell to produce ATP energy. In the tricarboxylic acid cycle, succinate is oxidized by succinate dehydrogenase to produce ATP. Oxidation occurs in the mitochondria and the mitochondria can utilize both succinate formed in the mitochondria or succinate transported to the mitochondria. Increasing ATP production may enhance cellular repair processes as well as normal metabolic processes. For example, the cell's ability to remove free intracellular Ca^2+ during a toxic insult is related to ATP production. Succinate administration stimulates gluconeogenesis to form glucose 6-phosphate which is used for producing energy anaerobically (ATP formation through glycolysis) and for producing reducing equivalents (NADPH formation through the hexose monophosphate shunt needed for lipid and nucleotide biosynthesis and other biosynthetic reductions and enzymatic reactions, e.g., glutathione reductase). An in vitro experiment was conducted to determine the relationship between the release of succinate from alpha-TS and the cellular ATP level. The experiment was performed by incubating a tocopherol analog in a rat hepatocyte suspension and measuring the ATP level at the beginning and end of the test.
Rat hepatocyte suspensions were subjected to 50 mM EMS and the percentage of cell death, the percentage of intracellular K^+ (a metabolic parameter as discussed above), the depletion of ATP and the effect on lipid peroxidation were monitored.

[3] = test system: gluconeogenesis or ATP production; conditions: cited from earlier work
rat hepatocytes [4] = assay: EMS-induced cytotoxicity (LDH leakage/cell death) in rat hepatocyte suspensions; conditions: Rattus norvegicus, Hepatocyte, 5 h, read-out: Percent Cytoprotection, 25 μM, 50 mM EMS, 5 h
L1210 leukemia cells = conditions: mouse, in vivo
male Sprague-Dawley rats = assay: CCl4 induced lethality in rats; assay type: in vivo, rat

Sleeping Time (rat) [min] | Structure (SMILES) | increase of Ca2+ capacity and Ca2+ retention of mitochondria [1] | Rate of ATP Depletion (rat hepatocytes [2]) [nmoles/10^6 cell/hr] | Cellular ATP (rat hepatocytes [2]; 0 Hr) [nmoles/10^6 cells] | Cellular ATP (rat hepatocytes [2]; 6 Hr) [nmoles/10^6 cells] | concentration required to stimulate gluconeogenesis or ATP production [3] | inhibition at 25 µM (rat hepatocytes [4]) [%] | Survival time (footnote) (L1210 leukemia cells) | Survival after CCl4 treatment (male Sprague-Dawley rats; 100 mg/kg ip 24 h prior, […] CCl4 oral) | Days Survived After CCl4 Treatment (male Sprague-Dawley rats; 100 mg/kg, single dose 24 h prior, CCl4 […]) [days] | cytoprotection (Table 7, in words) (male Sprague-Dawley rats; rat, in vivo)
900 ± 120 | CC(C)(C(=O)c1cccnc1)c1cccnc1 [Metyrapone] | – | – | – | – | – | – | – | – | – | –
– | O=C(O)CCC(=O)O [Succinic Acid, reference compound] | five to seven | 1.8 ± 0.2 | 15.7 ± 1.3 | 4.9 ± 0.6 | Millimolar concentrations | 0 | identical for succinate and vehicle treated | No | 2 | not cytoprotective
